Reference: US8410090B2, “Heterocyclylamide-substituted thiazoles, pyrroles and thiophenes” (AiCuris GmbH & Co. KG, priority 2005, dated 2013)

Tests used:
[1] = tested on: HCMV; experiment: Anti-HCMV cytopathogenicity test (CPE inhibition); assay type: cell-based, human cytomegalovirus; details: for EC50: Human betaherpesvirus 5, 144 h, concentration inhibiting CPE by 50% vs untreated virus control, HCMV-infected NHDF cells, M.O.I. 0.001-0.002, 6 days; for SI HCMV (selectivity index = CC50 (NHDF)/EC50 (HCMV)): ratio CC50 (NHDF)/EC50 (HCMV)
Experimental: Anti-HCMV (Anti-Human Cytomegalovirus) Cytopathogenicity Tests The test compounds are employed as 50 millimolar (mM) solutions in dimethyl sulphoxide (DMSO). Ganciclovir, foscarnet and cidofovir are used as reference compounds. After addition of in each case 2 μl of the 50, 5, 0.5 and 0.05 mM DMSO stock solutions to 98 μl portions of cell culture medium in row […] for duplicate determinations, 1:2 dilutions are carried out with 50 μl portions of medium up to row 11 of the 96-well plate. The wells in rows 1 and 12 each contain 50 μl of medium. Then 150 μl portions of a suspension of 1×10^4 cells (human prepuce fibroblasts [NHDF]) are pipetted into each of the wells (row 1=cell control) and, in rows 2-12, a mixture of HCMV-infected and uninfected NHDF cells (M.O.I.=0.001-0.002), i.e. 1-2 infected cells per 1000 uninfected cells. Row 12 (without substance) serves as virus control. The final test concentrations are 250-0.0005 μM. The plates are incubated at 37° C./5% CO2 for 6 days, i.e. until all the cells are infected in the virus controls (100% cytopathogenic effect [CPE]). The wells are then fixed and stained by adding a mixture of formalin and Giemsa's dye (30 minutes), washed with double-distilled water and dried in a drying oven at 50° C. The plates are then assessed visually using an overhead microscope (Plaque Multiplier from Technomara). The following data can be acquired from the test plates: EC50 (HCMV)=substance concentration in μM which inhibits the CPE (cytopathic effect) by 50% compared with the untreated virus control; SI (selectivity index)=CC50 (NHDF)/EC50 (HCMV).

[2] = Cytostatic effect on NHDF cells in the anti-HCMV cytopathogenicity test; assay type: cell-based; details: human, NHDF cells (human prepuce fibroblasts); maximum concentration with no visible cytostatic effects on NHDF cells vs untreated cell control; 6 days incubation
Experimental: Anti-HCMV (Anti-Human Cytomegalovirus) Cytopathogenicity Tests The test compounds are employed as 50 millimolar (mM) solutions in dimethyl sulphoxide (DMSO). Ganciclovir, foscarnet and cidofovir are used as reference compounds. After addition of in each case 2 μl of the 50, 5, 0.5 and 0.05 mM DMSO stock solutions to 98 μl portions of cell culture medium in row […] for duplicate determinations, 1:2 dilutions are carried out with 50 μl portions of medium up to row 11 of the 96-well plate. The wells in rows 1 and 12 each contain 50 μl of medium. Then 150 μl portions of a suspension of 1×10^4 cells (human prepuce fibroblasts [NHDF]) are pipetted into each of the wells (row 1=cell control) and, in rows 2-12, a mixture of HCMV-infected and uninfected NHDF cells (M.O.I.=0.001-0.002), i.e. 1-2 infected cells per 1000 uninfected cells. Row 12 (without substance) serves as virus control. The final test concentrations are 250-0.0005 μM. The plates are incubated at 37° C./5% CO2 for 6 days, i.e. until all the cells are infected in the virus controls (100% cytopathogenic effect [CPE]). The wells are then fixed and stained by adding a mixture of formalin and Giemsa's dye (30 minutes), washed with double-distilled water and dried in a drying oven at 50° C. The plates are then assessed visually using an overhead microscope (Plaque Multiplier from Technomara). The following data can be acquired from the test plates: CC50 (NHDF)=maximum substance concentration in μM at which no visible cytostatic effects on the cells are evident by comparison with the untreated cell control;

EC50 [1]	Structure (SMILES)	SI HCMV (selectivity index = CC50 (NHDF)/EC50 (HCMV)) [1]	CC50 at 6 days [2]
0.0007 µM	CCn1cc(NC(=O)Nc2ccc(OC(F)(F)F)cc2)cc1C(=O)N1CCN(c2ccc(C)cn2)CC1 [Example 4, N-(1-Ethyl-5-{[4-(5-methylpyridin-2-yl)piperazin-1-yl]carbonyl}-1H-pyrrol-3-yl)-N′-[4-(trifluoromethoxy)phenyl]urea]	28767	21 µM
0.0059 µM	Cc1ccc(N2CCN(C(=O)c3cc(NC(=O)Nc4ccc(OC(F)(F)F)cc4)cs3)CC2)nc1 [Example 9, N-(5-{[4-(5-Methylpyridin-2-yl)piperazin-1-yl]carbonyl}-3-thienyl)-N′-[4-(trifluoromethoxy)-phenyl]urea]	3559	21 µM
0.0016 µM	Cc1ccc(N2CCN(C(=O)c3nc(NC(=O)Nc4ccc(OC(F)(F)F)cc4)sc3C)CC2)nc1 [Example 14]	7333	11 µM
0.0054 µM	Cc1ccc(N2CCN(C(=O)c3cnc(NC(=O)Nc4ccc(OC(F)(F)F)cc4)s3)CC2)nc1 [Example 23]	2637	11 µM
